In patent publication US6737383B1, “Herbicidal oxadiazolidines” (priority 1999, dated 2004):

Legend:
bedstraw = assay: Test B pre/postemergence bedstraw; format: in vivo, Galium aparine
Outline: (§1)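 Herbicidal effect was estimated by eye on a ten-point control scale after plants spent twelve to sixteen days in a greenhouse following soil or foliar treatment. Foliar sprays targeted plants at one to four leaves; all doses were formulated in a non-phytotoxic solvent with surfactant.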

blackgrass = assay: Test B pre/postemergence blackgrass; format: in vivo, Alopecurus myosuroides
Outline: as §1

surinam grass = assay: Test B pre/postemergence surinam grass; format: in vivo, Brachiaria decumbens
Outline: as §1

cocklebur = assay: Test B pre/postemergence cocklebur; format: in vivo, Xanthium strumarium
Outline: as §1

corn = assay: Test B pre/postemergence corn; format: in vivo, Zea mays
Outline: as §1

crabgrass = assay: Test B pre/postemergence crabgrass; format: in vivo, Digitaria sanguinalis
Outline: as §1

giant foxtail = assay: Test B pre/postemergence giant foxtail; format: in vivo, Setaria faberii
Outline: as §1

morningglory = assay: Test B pre/postemergence morningglory; format: in vivo, Ipomoea hederacea
Outline: as §1

pigweed = assay: Test B pre/postemergence pigweed; format: in vivo, Amaranthus retroflexus
Outline: as §1

rape = assay: Test B pre/postemergence rape; format: in vivo, Brassica napus
Outline: as §1

soybean = assay: Test B pre/postemergence soybean; format: in vivo, Glycine max
Outline: as §1

sugar beet = assay: Test B pre/postemergence sugar beet; format: in vivo, Beta vulgaris
Outline: as §1

velvetleaf = assay: Test B pre/postemergence velvetleaf; format: in vivo, Abutilon theophrasti
Outline: as §1

wheat = assay: Test B pre/postemergence wheat; format: in vivo, Triticum aestivum
Outline: as §1

wild oat = assay: Test B pre/postemergence wild oat; format: in vivo, Avena fatua
Outline: as §1

purple nutsedge = assay: Test B pre/postemergence purple nutsedge; format: in vivo, Cyperus rotundus
Outline: as §1

[1] = Postemergence, Rate 125 g/ha, scale of 0 to 10 where 0 is no effect and 10 is complete control
[2] = Preemergence, Rate 62 g/ha, scale 0 to 10 (0 no effect, 10 complete control)
[3] = Preemergence, Rate 125 g/ha, 0 is no effect, 10 is complete control
[4] = Preemergence, Rate 250 g/ha, scale 0 to 10, 0 is no effect, 10 is complete control
[5] = Preemergence, Rate 500 g/ha, scale 0 to 10 (0 no effect, 10 complete control)
[6] = Rate 62 g/ha, Postemergence, scale of 0 to 10 where 0 is no effect and 10 is complete control
[7] = Rate 250 g/ha, Postemergence, scale 0 to 10, 0 is no effect, 10 is complete control
[8] = Rate 500 g/ha, Postemergence, scale 0 to 10

Compound: CC(C)N(C(=O)n1oc(=O)n(C(C)c2ccccc2)c1=O)c1ccc(Cl)cc1 (centres unmarked) [Compound 133]
- Bedstraw plant response rating (bedstraw; [1]): 4
- Bedstraw plant response rating (bedstraw; [2]): 0
- Bedstraw plant response rating (0 to 10 scale) (bedstraw; [3]): 0
- Bedstraw plant response rating (bedstraw; [4]): 0
- Bedstraw plant response rating (bedstraw; [5]): 0
- Bedstraw plant response rating (bedstraw; [6]): 0
- Plant response rating, Bedstraw (bedstraw; [7]): 7
- Bedstraw plant response rating (bedstraw; Rate 500 g/ha, Postemergence, scale 0 to 10, 0 no effect, 10 complete control): 7
- Blackgrass plant response rating (blackgrass; [1]): 2
- Blackgrass plant response rating (blackgrass; [2]): 3
- Blackgrass plant response rating (0 to 10 scale) (blackgrass; [3]): 3
- Blackgrass plant response rating (blackgrass; [4]): 3
- Blackgrass plant response rating (blackgrass; [5]): 5
- Blackgrass plant response rating (blackgrass; [6]): 0
- Plant response rating, Blackgrass (blackgrass; [7]): 2
- Blackgrass plant response rating (blackgrass; [8]): 4
- B. signalgrass plant response rating (surinam grass; [1]): 0
- B. signalgrass plant response rating (surinam grass; [2]): 0
- B. signalgrass plant response rating (0 to 10 scale) (surinam grass; [3]): 5
- B. signalgrass plant response rating (surinam grass; [4]): 5
- B. signalgrass plant response rating (surinam grass; [5]): 7
- B. signalgrass plant response rating (surinam grass; [6]): 0
- Plant response rating, B. signalgrass (surinam grass; [7]): 2
- B. signalgrass plant response rating (surinam grass; Rate 500 g/ha, Postemergence, scale of 0 to 10 where 0 is no effect and 10 is complete control): 2
- Cocklebur plant response rating (cocklebur; [1]): 2
- Cocklebur plant response rating (cocklebur; [2]): 0
- Cocklebur plant response rating (0 to 10 scale) (cocklebur; [3]): 0
- Cocklebur plant response rating (cocklebur; [4]): 0
- Cocklebur plant response rating (cocklebur; [5]): 2
- Cocklebur plant response rating (cocklebur; [6]): 2
- Plant response rating, Cocklebur (cocklebur; [7]): 2
- Cocklebur plant response rating (cocklebur; [8]): 3
- Corn plant response rating (corn; [1]): 0
- Corn plant response rating (corn; [2]): 0
- Corn plant response rating (0 to 10 scale) (corn; [3]): 0
- Corn plant response rating (corn; [4]): 0
- Corn plant response rating (corn; [5]): 0
- Corn plant response rating (corn; [6]): 0
- Plant response rating, Corn (corn; [7]): 0
- Corn plant response rating (corn; [8]): 0
- Crabgrass plant response rating (crabgrass; [1]): 2
- Crabgrass plant response rating (crabgrass; [2]): 1
- Crabgrass plant response rating (0 to 10 scale) (crabgrass; [3]): 3
- Crabgrass plant response rating (crabgrass; [4]): 5
- Crabgrass plant response rating (crabgrass; [5]): 5
- Crabgrass plant response rating (crabgrass; [6]): 0
- Plant response rating, Crabgrass (crabgrass; [7]): 4
- Crabgrass plant response rating (crabgrass; [8]): 4
- Giant foxtail plant response rating (giant foxtail; [1]): 2
- Giant foxtail plant response rating (giant foxtail; [2]): 3
- Giant foxtail plant response rating (0 to 10 scale) (giant foxtail; [3]): 7
- Giant foxtail plant response rating (giant foxtail; [4]): 9
- Giant foxtail plant response rating (giant foxtail; [5]): 10
- Giant foxtail plant response rating (giant foxtail; [6]): 0
- Plant response rating, Giant foxtail (giant foxtail; [7]): 3
- Giant foxtail plant response rating (giant foxtail; [8]): 4
- Morningglory plant response rating (morningglory; [1]): 3
- Morningglory plant response rating (morningglory; [2]): 0
- Morningglory plant response rating (0 to 10 scale) (morningglory; [3]): 0
- Morningglory plant response rating (morningglory; [4]): 0
- Morningglory plant response rating (morningglory; [5]): 0
- Morningglory plant response rating (morningglory; [6]): 2
- Plant response rating, Morningglory (morningglory; [7]): 4
- Morningglory plant response rating (morningglory; [8]): 8
- Redroot pigweed plant response rating (pigweed; [1]): 0
- Redroot pigweed plant response rating (pigweed; [2]): 0
- Redroot pigweed plant response rating (0 to 10 scale) (pigweed; [3]): 0
- Redroot pigweed plant response rating (pigweed; [4]): 0
- Redroot pigweed plant response rating (pigweed; [5]): 3
- Redroot pigweed plant response rating (pigweed; [6]): 0
- Plant response rating, Redroot pigweed (pigweed; [7]): 0
- Redroot pigweed plant response rating (pigweed; [8]): 2
- Rape plant response rating (rape; [1]): 0
- Rape plant response rating (rape; [2]): 0
- Rape plant response rating (0 to 10 scale) (rape; [3]): 0
- Rape plant response rating (rape; [4]): 0
- Rape plant response rating (rape; [5]): 2
- Rape plant response rating (rape; [6]): 0
- Plant response rating, Rape (rape; [7]): 0
- Rape plant response rating (rape; [8]): 0
- Soybean plant response rating (soybean; [1]): 3
- Soybean plant response rating (soybean; [2]): 0
- Soybean plant response rating (0 to 10 scale) (soybean; [3]): 0
- Soybean plant response rating (soybean; [4]): 0
- Soybean plant response rating (soybean; [5]): 0
- Soybean plant response rating (soybean; [6]): 1
- Plant response rating, Soybean (soybean; [7]): 3
- Soybean plant response rating (soybean; [8]): 3
- Sugarbeets plant response rating (sugar beet; [1]): 0
- Sugarbeets plant response rating (sugar beet; [2]): 0
- Sugarbeets plant response rating (0 to 10 scale) (sugar beet; [3]): 2
- Sugarbeets plant response rating (sugar beet; [4]): 3
- Sugarbeets plant response rating (sugar beet; [5]): 5
- Sugarbeets plant response rating (sugar beet; [6]): 0
- Plant response rating, Sugarbeets (sugar beet; [7]): 0
- Sugarbeets plant response rating (sugar beet; [8]): 2
- Velvetleaf plant response rating (velvetleaf; [1]): 0
- Velvetleaf plant response rating (velvetleaf; [2]): 0
- Velvetleaf plant response rating (0 to 10 scale) (velvetleaf; [3]): 0
- Velvetleaf plant response rating (velvetleaf; [4]): 2
- Velvetleaf plant response rating (velvetleaf; [5]): 2
- Velvetleaf plant response rating (velvetleaf; [6]): 0
- Plant response rating, Velvetleaf (velvetleaf; [7]): 2
- Velvetleaf plant response rating (velvetleaf; [8]): 5
- Wheat plant response rating (wheat; [1]): 0
- Wheat plant response rating (wheat; [2]): 0
- Wheat plant response rating (0 to 10 scale) (wheat; [3]): 0
- Wheat plant response rating (wheat; [4]): 0
- Wheat plant response rating (wheat; [5]): 0
- Wheat plant response rating (wheat; [6]): 0
- Plant response rating, Wheat (wheat; [7]): 0
- Wheat plant response rating (wheat; [8]): 2
- Wild oats plant response rating (wild oat; [1]): 0
- Wild oats plant response rating (wild oat; [2]): 0
- Wild oats plant response rating (0 to 10 scale) (wild oat; [3]): 2
- Wild oats plant response rating (wild oat; [4]): 2
- Wild oats plant response rating (wild oat; [5]): 4
- Wild oats plant response rating (wild oat; [6]): 0
- Plant response rating, Wild oats (wild oat; [7]): 0
- Wild oats plant response rating (wild oat; [8]): 0
- Nutsedge plant response rating (purple nutsedge; [1]): 0
- Nutsedge plant response rating (purple nutsedge; [2]): 0
- Nutsedge plant response rating (0 to 10 scale) (purple nutsedge; [3]): 0
- Nutsedge plant response rating (purple nutsedge; [4]): 0
- Nutsedge plant response rating (purple nutsedge; [5]): 0
- Nutsedge plant response rating (purple nutsedge; [6]): 0
- Plant response rating, Nutsedge (purple nutsedge; [7]): 0
- Nutsedge plant response rating (purple nutsedge; [8]): 0
